Assay results reported in PubChem BioAssay AID330 (DTP/NCI, 2004).
“And” between values parts separate entries of the source, which are not always exact repeats. Equal values may be shown once. Toxic doses and inconclusive results are not listed. The calls were made as follows: active = survival T/C of 150% or more; inactive = T/C below 125% in these data.

Tested on: P388 leukemia ip, CD2F1 mice, survival T/C
Experiment: NCI In Vivo Anticancer Drug Screen. Data for tumor model P388 Leukemia (intraperitoneal) in CD2F1 (CDF1) mice
Settings: endpoint: median survival time, higher = longer survival
Procedure, shortened: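 Mice carrying the transplanted tumor received test compound or vehicle. Survival was recorded in each group, and the value is the treated-group measurement divided by that of the vehicle-treated control group.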

[1] = dose: 50.0 mg/kg/injection, schedule: Q01DX005 (ip), vehicle: Klucel (hydroxypropylcellulose) (HPC)
[2] = dose: 100.0 mg/kg/injection, schedule: Q01DX005 (ip), vehicle: Klucel (hydroxypropylcellulose) (HPC)
[3] = dose: 200.0 mg/kg/injection, schedule: Q01DX005 (ip), vehicle: Klucel (hydroxypropylcellulose) (HPC)
[4] = dose: 50.0 mg/kg/injection, schedule: Q04DX003 (ip), vehicle: saline with Tween-80
[5] = dose: 100.0 mg/kg/injection, schedule: Q04DX003 (ip), vehicle: saline with Tween-80
[6] = dose: 50.0 mg/kg/injection, schedule: Q01DX009 (ip), vehicle: Klucel (hydroxypropylcellulose) (HPC)
[7] = dose: 100.0 mg/kg/injection, schedule: Q01DX009 (ip), vehicle: Klucel (hydroxypropylcellulose) (HPC)
[8] = dose: 200.0 mg/kg/injection, schedule: Q01DX009 (ip), vehicle: Klucel (hydroxypropylcellulose) (HPC)
[9] = dose: 60.0 mg/kg/injection, schedule: Q01DX005 (ip), vehicle: saline with Tween-80
[10] = dose: 120.0 mg/kg/injection, schedule: Q01DX005 (ip), vehicle: saline with Tween-80
[11] = dose: 240.0 mg/kg/injection, schedule: Q01DX005 (ip), vehicle: saline with Tween-80
[12] = dose: 50.0 mg/kg/injection, schedule: Q01DX005 (ip), vehicle: saline with Tween-80
[13] = dose: 100.0 mg/kg/injection, schedule: Q01DX005 (ip), vehicle: saline with Tween-80
[14] = dose: 200.0 mg/kg/injection, schedule: Q01DX005 (ip), vehicle: saline with Tween-80
[15] = dose: 50.0 mg/kg/injection, schedule: Q01DX009 (ip), vehicle: saline
[16] = dose: 100.0 mg/kg/injection, schedule: Q01DX009 (ip), vehicle: saline
[17] = dose: 60.0 mg/kg/injection, schedule: Q01DX005 (ip), vehicle: Klucel (hydroxypropylcellulose) (HPC)
[18] = dose: 120.0 mg/kg/injection, schedule: Q01DX005 (ip), vehicle: Klucel (hydroxypropylcellulose) (HPC)
[19] = dose: 240.0 mg/kg/injection, schedule: Q01DX005 (ip), vehicle: Klucel (hydroxypropylcellulose) (HPC)

Measured: T/C

COC(=O)CC1(C(=O)OC)c2ccc3c(C(=O)C(F)(F)F)cccc3c2N2CCCC21 (centres undefined)
inactive: dose: 100.0 mg/kg/injection, schedule: Q04DX002 (ip), vehicle: saline 101 % of control | dose: 200.0 mg/kg/injection, schedule: Q04DX002 (ip), vehicle: saline 102 % of control | dose: 400.0 mg/kg/injection, schedule: Q04DX002 (ip), vehicle: saline 102 % of control

c1ccc(-c2cc3nncc(-c4ccccc4)n3n2)cc1
inactive: [1] 107 % of control | [2] 105 % of control | [3] 96 % of control

C/C(N)=C\C#N
inactive: dose: 25.0 mg/kg/injection, schedule: Q04DX003 (ip), vehicle: saline with Tween-80 100 % of control | [4] 101 % of control | [5] 98 % of control and 97 % of control

S=C(SSC(=S)C1CCCC1=NC1CCCCC1)C1CCCC1=NC1CCCCC1 (centres undefined)
inactive: [6] 101 % of control | [7] 108 % of control | [8] 108 % of control

CCOCCOCCOC(C)Oc1ccc(Cl)cc1C (centres undefined)
inactive: [9] 90 % of control | [10] 92 % of control | [11] 98 % of control

COc1cc2c(cc1OC)C1CC(CC3CCCCN31)OC(=O)/C=C\c1ccc(O)c-2c1 (centres undefined)
inactive: dose: 25.0 mg/kg/injection, schedule: Q04DX003 (ip), vehicle: saline 105 % of control | dose: 50.0 mg/kg/injection, schedule: Q04DX003 (ip), vehicle: saline 111 % of control | dose: 100.0 mg/kg/injection, schedule: Q04DX003 (ip), vehicle: saline 102 % of control and 86 % of control

CCN(CC)c1c(C)c(-c2ccccc2)oc(=O)c1Cl
inactive: [12] 100 % of control | [13] 100 % of control | [14] 115 % of control

Cc1ccccc1NCN1C(=O)S/C(=C2\C(=O)N(C)c3ccc(Br)cc32)C1=O
inactive: [1] 95 % of control | [2] 92 % of control | [3] 90 % of control

CC(Cc1ccccc1)N(C)Cc1ccc(-c2ccc(Cl)cc2)o1 (centres undefined)
inactive: [9] 110 % of control | [10] 107 % of control | [11] 107 % of control

C/C(N=NC(=S)N1CC2CCC(CC2)C1)=C1\C=CC=CN1O
inactive: [12] 105 % of control | [13] 98 % of control | [14] 101 % of control

O=C1C2CCC(C2)[CH]1[Hg][Cl] (centres undefined)
inactive: dose: 6.25 mg/kg/injection, schedule: Q01DX009 (ip), vehicle: saline with Tween-80 107 % of control | dose: 12.5 mg/kg/injection, schedule: Q01DX009 (ip), vehicle: saline with Tween-80 112 % of control | dose: 25.0 mg/kg/injection, schedule: Q01DX009 (ip), vehicle: saline with Tween-80 88 % of control

COc1c2ccoc2nc2c(OCC=C(C)C)c3c(cc12)OCO3
inactive: dose: 5.0 mg/kg/injection, schedule: Q01DX005 (ip), vehicle: Klucel (hydroxypropylcellulose) (HPC) 101 % of control | dose: 10.0 mg/kg/injection, schedule: Q01DX005 (ip), vehicle: Klucel (hydroxypropylcellulose) (HPC) 100 % of control | dose: 20.0 mg/kg/injection, schedule: Q01DX005 (ip), vehicle: Klucel (hydroxypropylcellulose) (HPC) 100 % of control | dose: 40.0 mg/kg/injection, schedule: Q01DX005 (ip), vehicle: Klucel (hydroxypropylcellulose) (HPC) 101 % of control | dose: 80.0 mg/kg/injection, schedule: Q01DX005 (ip), vehicle: Klucel (hydroxypropylcellulose) (HPC) 94 % of control

CCOC(=O)Nc1cc(Cl)c2ncn(C(=O)OCC)c2n1
inactive: [6] 96 % of control | [7] 90 % of control | [8] 93 % of control

S=c1[nH]nc(Cc2cccc3ccccc23)n1-c1ccccc1
inactive: [1] 97 % of control | [2] 99 % of control | [3] 90 % of control

COc1ccc(OC)c2c(NCCNCCO)cc(NCCNCCO)nc12
inactive: dose: 15.0 mg/kg/injection, schedule: Q01DX005 (ip), vehicle: saline 100 % of control | dose: 30.0 mg/kg/injection, schedule: Q01DX005 (ip), vehicle: saline 95 % of control | dose: 60.0 mg/kg/injection, schedule: Q01DX005 (ip), vehicle: saline 97 % of control

Cc1ccc(NC(=O)N2CCOCC2)cc1NC(=O)N1CCOCC1
inactive: [15] 100 % of control | [16] 91 % of control

COc1ccc2c(c1)CCC1=C2CCC2(C)C1=CCS2(=O)=O (centres undefined)
inactive: [17] 105 % of control | [18] 90 % of control | [19] 97 % of control

Nc1ccc(S(=O)(=O)Nc2ccc3oc(=O)[nH]c3c2)cc1
inactive: dose: 50.0 mg/kg/injection, schedule: Q04DX002 (ip), vehicle: Klucel (hydroxypropylcellulose) (HPC) 101 % of control | dose: 100.0 mg/kg/injection, schedule: Q04DX002 (ip), vehicle: Klucel (hydroxypropylcellulose) (HPC) 104 % of control | dose: 200.0 mg/kg/injection, schedule: Q04DX002 (ip), vehicle: Klucel (hydroxypropylcellulose) (HPC) 104 % of control

CC(=O)[OH+]c1c(Br)cc(Br)cc1C(=O)[O-].CC(=O)[OH+]c1c(Br)cc(Br)cc1C(=O)[O-].[Cu+2]
inactive: dose: 12.5 mg/kg/injection, schedule: Q01DX005 (ip), vehicle: saline with Tween-80 101 % of control | dose: 25.0 mg/kg/injection, schedule: Q01DX005 (ip), vehicle: saline with Tween-80 100 % of control | dose: 50.0 mg/kg/injection, schedule: Q01DX005 (ip), vehicle: saline 102 % of control

NCC(O)c1ccc(O)cc1 (centres undefined)
inactive: [15] 101 % of control and 111 % of control | [16] 106 % of control and 108 % of control | dose: 200.0 mg/kg/injection, schedule: Q01DX009 (ip), vehicle: saline 106 % of control and 90 % of control | dose: 400.0 mg/kg/injection, schedule: Q01DX009 (ip), vehicle: saline 89 % of control and 96 % of control | dose: 600.0 mg/kg/injection, schedule: Q01DX009 (ip), vehicle: saline 89 % of control and 90 % of control

O=C1/C(=C/c2ccccc2)CCCC12C(c1ccccc1)N2Cc1ccccc1 (centres undefined)
inactive: [17] 91 % of control | [18] 90 % of control | [19] 88 % of control

O=C(/C=C/c1c[nH]c2ccccc12)c1ccc([N+](=O)[O-])cc1
inactive: dose: 15.0 mg/kg/injection, schedule: Q01DX005 (ip), vehicle: saline with Tween-80 100 % of control | dose: 30.0 mg/kg/injection, schedule: Q01DX005 (ip), vehicle: saline with Tween-80 86 % of control | [9] 97 % of control

COC(=O)C(=O)C(C#N)c1ccc([N+](=O)[O-])cc1 (centres undefined)
inactive: [9] 101 % of control | [10] 93 % of control | [11] 95 % of control

Cc1cc(N=Nc2ccccc2)cc(C)c1N
inactive: dose: 100.0 mg/kg/injection, schedule: Q01DX009 (ip), vehicle: saline with Tween-80 90 % of control | dose: 200.0 mg/kg/injection, schedule: Q01DX009 (ip), vehicle: saline with Tween-80 90 % of control | dose: 400.0 mg/kg/injection, schedule: Q01DX009 (ip), vehicle: saline with Tween-80 100 % of control

COc1c(C)cc([N+](=O)[O-])c(C)c1[N+](=O)[O-]
inactive: dose: 50.0 mg/kg/injection, schedule: Q01DX001 (ip), vehicle: Klucel (hydroxypropylcellulose) (HPC) 92 % of control | dose: 100.0 mg/kg/injection, schedule: Q01DX001 (ip), vehicle: Klucel (hydroxypropylcellulose) (HPC) 93 % of control | dose: 200.0 mg/kg/injection, schedule: Q01DX001 (ip), vehicle: Klucel (hydroxypropylcellulose) (HPC) 90 % of control

CCOC(=O)C1CC(c2ccccc2)=NN1c1ccccc1 (centres undefined)
inactive: dose: 25.0 mg/kg/injection, schedule: Q01DX009 (ip), vehicle: Klucel (hydroxypropylcellulose) (HPC) 96 % of control | [6] 96 % of control | [7] 99 % of control | [8] 99 % of control | dose: 400.0 mg/kg/injection, schedule: Q01DX009 (ip), vehicle: Klucel (hydroxypropylcellulose) (HPC) 96 % of control

COc1ccc(-n2nnnc2N(C)c2ccccc2)cc1
inactive: [4] 100 % of control | [5] 94 % of control | dose: 200.0 mg/kg/injection, schedule: Q04DX003 (ip), vehicle: saline with Tween-80 96 % of control

NC(=N\O)/C(N)=N\O
inactive: [6] 100 % of control | [7] 98 % of control | [8] 106 % of control
